Experimental data reported in ChEMBL document CHEMBL5614422, “Design, synthesis and biological evaluation of N-salicyloyl tryptamine derivatives as multifunctional neuroprotectants for the treatment of ischemic stroke” (Eur J Med Chem, 2024).
In brackets after ≈: the same amount, converted by molar mass.

Columns and labels:
[1] = Antioxidant activity assessed as trolox equivalent of ORAC radical scavenging activity at 0.125 to 2 uM by AAPH based automatic microplate reader analysis; assay type: functional; conditions: dose 0.125-2 µM
[2] = Cytotoxicity against mouse HT-22 cells assessed as cell viability incubated for 24 hrs by CCK-8 method; assay type: toxicity, cell-based
[3] = Cytotoxicity against mouse BV-2 cells assessed as cell viability incubated for 24 hrs by CCK-8 method; assay type: toxicity, cell-based
HT-22 [4] = experiment: Neuroprotective activity against OGD/R induced cell damage in mouse HT-22 cells assessed as cell viability at 10 uM measured after 24 hrs by MTT assay (reference value: 69.01 +/-2.90%); assay type: functional; conditions: read-out: Activity
HT-22 [5] = experiment: Anti-apoptotic activity in OGD/R mouse HT-22 cells assessed as viable cells at 10 uM by annexin V-FITC and PI staining based flow cytometry analysis (reference value: 83.09%); assay type: functional; conditions: read-out: Activity
HT-22 [6] = experiment: Anti-apoptotic activity in OGD/R mouse HT-22 cells assessed as necrotic cells at 10 uM by annexin V-FITC and PI staining based flow cytometry analysis (reference value: 0.14%); assay type: functional
HT-22 [7] = experiment: Anti-apoptotic activity in OGD/R mouse HT-22 cells assessed as early apoptotic cells at 10 uM by annexin V-FITC and PI staining based flow cytometry analysis (reference value: 9.51%); assay type: functional
HT-22 [8] = experiment: Anti-apoptotic activity in OGD/R mouse HT-22 cells assessed as late apoptotic cells at 10 uM by annexin V-FITC and PI staining based flow cytometry analysis (reference value: 7.26%); assay type: functional
HT-22 [9] = experiment: Antioxidant activity against OGD/R induced damage in mouse HT-22 cells assessed as decrease in proportion of mitochondrial depolarized cells at 10 uM by JC-1 fluorescence based flow cytometry analysis (reference value: 91.7%); assay type: functional; parameters: scale not given: the % may be the effect or the level left
[10] = Aqueous solubility of the compound incubated for 72 hrs under shaking condition by HPLC analysis; assay type: physicochemical

SMILES	IC50 at 24 h [2]	IC50 at 24 h [3]	viability at 10 µM (HT-22 [4])	other results
Cc1ccc(C(=O)NCCc2c[nH]c3cccc(F)c23)c(O)c1	84.6 µM	81.7 µM	94.5%	Activity [1]: 3.7
COc1ccc(O)c(C(=O)NCCc2c[nH]c3ccccc23)c1	> 100 µM	51 µM	88.5%	viability at 10 µM (HT-22 [5]): 89.1%; Activity (HT-22 [6]): 0.16%; Activity (HT-22 [7]): 5.54%; Activity (HT-22 [8]): 5.18%
O=C(NCCc1c[nH]c2ccccc12)c1c(O)cccc1F	> 100 µM	> 100 µM	87.7%	–
COc1cccc2c(CCNC(=O)c3ccc(C)cc3O)c[nH]c12	73.2 µM	90.9 µM	91.5%	Activity [1]: 2
COc1ccc2c(CCNC(=O)c3ccc(C)cc3O)c[nH]c2c1	102 µM	> 100 µM	61.5%	–
Cc1ccc(C(=O)NCCc2c[nH]c3c(Cl)cccc23)c(O)c1	> 100 µM	62.2 µM	74.8%	–
Cc1ccc(C(=O)NCCc2c[nH]c3c(Br)cccc23)c(O)c1	> 100 µM	52.8 µM	78.1%	–
Cc1ccc(C(=O)NCCc2c[nH]c3cc(N(C)C)ccc23)c(O)c1	46.4 µM	52.4 µM	88.9%	–
CNc1ccc2[nH]cc(CCNC(=O)c3ccc(C)cc3O)c2c1	> 100 µM	95.4 µM	82.4%	–
Cc1ccc(C(=O)NCCc2c[nH]c3c(C)cccc23)c(O)c1	> 100 µM	39.1 µM	79.5%	–
Cc1ccc(C(=O)NCCc2c[nH]c3ccccc23)c(O)c1	> 100 µM	> 100 µM	88.8%	Activity [1]: 4.4; Activity (HT-22 [9]): 74%
CC1=NN(c2ccccc2)C(=O)C1 [EDARAVONE]	–	–	80.9%	Activity [1]: 2.8; solubility thermodynamic at 72 h [10]: 1840 µg/mL (≈ 10.6 mM); viability at 10 µM (HT-22 [5]): 92.1%; Activity (HT-22 [6]): 0.72%; Activity (HT-22 [7]): 1.78%; Activity (HT-22 [9]): 67.9%; Activity (HT-22 [8]): 5.39%
Cc1ccc(C(=O)NCCc2c[nH]c3cc(Cl)ccc23)c(O)c1	63.1 µM	52.5 µM	64.6%	–
COc1ccc(C(=O)NCCc2c[nH]c3ccccc23)c(O)c1	52.6 µM	68 µM	86.9%	–
Cc1ccc(C(=O)NCCc2c[nH]c3c(N(C)C)cccc23)c(O)c1	59.8 µM	> 100 µM	87.1%	–
O=C(NCCc1c[nH]c2ccccc12)c1ccc(Cl)cc1O	99.7 µM	53.4 µM	65.8%	–
Cc1ccc(O)c(C(=O)NCCc2c[nH]c3ccccc23)c1	51.1 µM	50.2 µM	76.5%	–
Cc1ccc(C(=O)NCCc2c[nH]c3cccc(Br)c23)c(O)c1	> 100 µM	> 100 µM	73.1%	–
Cc1ccc(C(=O)NCCc2c[nH]c3c(F)cccc23)c(O)c1	86.2 µM	43 µM	92.5%	–
Cc1ccc(C(=O)NCCc2c[nH]c3ccc(Br)cc23)c(O)c1	76.1 µM	88.6 µM	67.8%	–
Cc1ccc(C(=O)NCCc2c[nH]c3cccc(C)c23)c(O)c1	> 100 µM	> 100 µM	52.4%	–
COc1cc(Cl)c2c(CCNC(=O)c3ccc(C)cc3O)c[nH]c2c1	> 100 µM	> 100 µM	60.1%	–
COc1ccc2[nH]cc(CCNC(=O)c3ccc(C)cc3O)c2c1	> 100 µM	> 100 µM	74%	–

SMILES	IC50 at 24 h [2]	IC50 at 24 h [3]	viability at 10 µM (HT-22 [4])	other results
Cc1ccc(C(=O)NCCc2c[nH]c3cc(F)cc(F)c23)c(O)c1	61.9 µM	32.7 µM	89.2%	–
O=C(NCCc1c[nH]c2ccccc12)c1cccc(Cl)c1O	52 µM	50.4 µM	87.9%	–
Cc1ccc(C(=O)NCCc2c[nH]c3cc(Br)ccc23)c(O)c1	70.8 µM	46.6 µM	66.2%	–
COc1cc2[nH]cc(CCNC(=O)c3ccc(C)cc3O)c2cc1OC	54.6 µM	26.5 µM	75%	–
CNc1cccc2c(CCNC(=O)c3ccc(C)cc3O)c[nH]c12	> 100 µM	28.9 µM	80.8%	–
Cc1ccc(C(=O)NCCc2c[nH]c3cccc(Cl)c23)c(O)c1	> 100 µM	89.1 µM	71.1%	–
O=C(NCCc1c[nH]c2ccccc12)c1cc(Cl)ccc1O	> 100 µM	> 100 µM	77.2%	–
COc1cccc(C(=O)NCCc2c[nH]c3ccccc23)c1O	> 100 µM	> 100 µM	87.8%	–
O=C(NCCc1c[nH]c2ccccc12)c1ccccc1O	> 100 µM	55.1 µM	83%	–
Cc1ccc(C(=O)NCCc2c[nH]c3ccc(Cl)cc23)c(O)c1	61.2 µM	80.5 µM	76%	–
Cc1ccc(C(=O)NCCc2c[nH]c3ccc(F)cc23)c(O)c1	> 100 µM	> 100 µM	83.9%	Activity [1]: 3.1
O=C(NCCc1c[nH]c2ccccc12)c1ccc(Br)cc1O	> 100 µM	> 100 µM	76.2%	–
O=C(NCCc1c[nH]c2ccccc12)c1cccc(Br)c1O	48.5 µM	85.4 µM	79.7%	–
Cc1cccc(O)c1C(=O)NCCc1c[nH]c2ccccc12	60 µM	43.6 µM	88.4%	–
Cc1ccc(C(=O)NCCc2c[nH]c3cc(F)ccc23)c(O)c1	> 100 µM	> 100 µM	77.7%	–
Cc1ccc(C(=O)NCCc2c[nH]c3ccc(C)cc23)c(O)c1	> 100 µM	79.3 µM	89.5%	Activity [1]: 3.1
COc1cccc(O)c1C(=O)NCCc1c[nH]c2ccccc12	8.06 µM	21.7 µM	59.2%	–
Cc1ccc(C(=O)NCCc2c[nH]c3cc4c(cc23)OCO4)c(O)c1	> 100 µM	98.8 µM	82.8%	–
COc1cccc2[nH]cc(CCNC(=O)c3ccc(C)cc3O)c12	78.4 µM	96 µM	74%	–
O=C(NCCc1c[nH]c2ccccc12)c1cc(Br)ccc1O	64.7 µM	68.2 µM	73.4%	–
COc1cc(C)cc2[nH]cc(CCNC(=O)c3ccc(C)cc3O)c12	73 µM	52.9 µM	85.4%	–
Cc1cccc(C(=O)NCCc2c[nH]c3ccccc23)c1O	51.5 µM	36.1 µM	87.2%	–
Cc1ccc(C(=O)NCCc2c[nH]c3cc(C)ccc23)c(O)c1	> 100 µM	> 100 µM	60.2%	–
